pIC50, pKi: −log10 of the molar value. Calls of active or inactive are those of the source. The rule behind the calls is not given here.

Series [1] has as its target T1, Prostaglandin D2 receptor 2 (Homo sapiens, UniProt Q9Y5Y4).
T1 sequence (Q9Y5Y4 whole entry): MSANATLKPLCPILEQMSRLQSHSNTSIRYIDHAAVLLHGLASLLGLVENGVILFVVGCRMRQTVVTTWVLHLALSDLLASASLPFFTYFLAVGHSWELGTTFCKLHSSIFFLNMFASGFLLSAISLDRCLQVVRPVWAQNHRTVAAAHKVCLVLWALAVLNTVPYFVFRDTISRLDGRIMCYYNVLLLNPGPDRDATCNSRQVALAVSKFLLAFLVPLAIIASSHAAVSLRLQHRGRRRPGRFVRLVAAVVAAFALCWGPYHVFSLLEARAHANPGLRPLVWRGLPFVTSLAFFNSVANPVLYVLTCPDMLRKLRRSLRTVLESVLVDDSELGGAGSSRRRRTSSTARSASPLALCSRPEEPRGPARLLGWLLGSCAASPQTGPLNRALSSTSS
Put plainly: Displacement of […] from human CRTh2 receptor expressed in CHO cells. In kind it is cell-based. On the technique in general: In a radioligand displacement assay an active substance lowers the binding of a labelled ligand.

The target in series [2] is T2, Prostaglandin D2 receptor (Homo sapiens, UniProt Q13258).
T2 sequence (Q13258 whole entry): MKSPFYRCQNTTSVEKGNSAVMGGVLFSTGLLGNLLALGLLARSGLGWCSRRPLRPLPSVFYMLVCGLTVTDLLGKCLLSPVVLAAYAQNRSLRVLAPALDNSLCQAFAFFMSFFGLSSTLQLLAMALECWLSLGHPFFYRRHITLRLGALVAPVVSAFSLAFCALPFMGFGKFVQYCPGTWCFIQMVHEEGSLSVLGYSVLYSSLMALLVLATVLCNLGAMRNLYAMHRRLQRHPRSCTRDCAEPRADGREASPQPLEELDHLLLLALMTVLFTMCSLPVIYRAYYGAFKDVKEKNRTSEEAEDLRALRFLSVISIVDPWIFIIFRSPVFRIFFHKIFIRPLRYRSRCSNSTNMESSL
Put plainly: Binding affinity at prostanoid DP receptor.

Series [3] is described as follows: Permeability from basolateral to apical side of Caco-2 cell membrane. In kind it is ADME, cell-based. The conditions noted are these: human, read-out: permeability. (Caco-2 monolayers are a common model of the intestinal barrier.)
A short description of series [4]: AUCall in rat. The conditions noted are these: plasma. It is filed as ADME, organism-based.
The nature of series [5]: Cmax in rat. In kind it is ADME, organism-based. Particulars: in vivo.
In series [6] the test system is Eosinophil. Description: Inhibition of 13,14-dihydro-15-ketoprostaglandin D2-stimulated human eosinophils shape change. It is filed as functional, cell-based.
A short description of series [7]: Intrinsic clearance in rat microsomes. In kind it is ADME, Microsome.
The target in another series is Cytochrome P450 2D6 (Homo sapiens, UniProt P10635). Description: Inhibition of CYP2D6. In kind it is ADME.
Cytochrome P450 2D6, sequence (P10635 whole entry): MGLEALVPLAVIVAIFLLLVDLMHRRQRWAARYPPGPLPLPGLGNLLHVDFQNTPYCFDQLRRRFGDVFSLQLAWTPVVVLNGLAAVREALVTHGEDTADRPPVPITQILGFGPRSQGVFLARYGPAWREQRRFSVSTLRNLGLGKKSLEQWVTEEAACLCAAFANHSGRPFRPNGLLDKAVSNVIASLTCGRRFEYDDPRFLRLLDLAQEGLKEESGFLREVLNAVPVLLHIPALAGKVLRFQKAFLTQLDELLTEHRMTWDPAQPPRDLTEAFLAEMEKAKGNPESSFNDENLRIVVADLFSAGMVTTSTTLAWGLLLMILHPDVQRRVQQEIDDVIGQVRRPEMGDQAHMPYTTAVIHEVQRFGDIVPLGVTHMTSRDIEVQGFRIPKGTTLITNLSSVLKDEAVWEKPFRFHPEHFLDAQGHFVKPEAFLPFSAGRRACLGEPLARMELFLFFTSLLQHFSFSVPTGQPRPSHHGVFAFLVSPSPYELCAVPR
Series [8] in a line: Half life in rat at 0.5 mg/kg, iv. It is filed as ADME, organism-based. On the set-up: dose 0.5 mg/kg, route intravenous. The conditions noted are these: in vivo.
The nature of series [9]: Volume of distribution at steady state in rat. The conditions noted are these: in vivo, read-out: Vdss. In kind it is ADME, organism-based.
Series [10] relates to Eosinophil. Description: Inhibition of 13,14-dihydro-15-ketoprostaglandin D2-stimulated human eosinophils shape change upto 10 uM. In kind it is functional, cell-based.
The target of another series is Cytochrome P450 3A4 (Homo sapiens, UniProt P08684). Description: Inhibition of CYP3A4. In kind it is ADME.
Cytochrome P450 3A4, sequence (P08684 whole entry): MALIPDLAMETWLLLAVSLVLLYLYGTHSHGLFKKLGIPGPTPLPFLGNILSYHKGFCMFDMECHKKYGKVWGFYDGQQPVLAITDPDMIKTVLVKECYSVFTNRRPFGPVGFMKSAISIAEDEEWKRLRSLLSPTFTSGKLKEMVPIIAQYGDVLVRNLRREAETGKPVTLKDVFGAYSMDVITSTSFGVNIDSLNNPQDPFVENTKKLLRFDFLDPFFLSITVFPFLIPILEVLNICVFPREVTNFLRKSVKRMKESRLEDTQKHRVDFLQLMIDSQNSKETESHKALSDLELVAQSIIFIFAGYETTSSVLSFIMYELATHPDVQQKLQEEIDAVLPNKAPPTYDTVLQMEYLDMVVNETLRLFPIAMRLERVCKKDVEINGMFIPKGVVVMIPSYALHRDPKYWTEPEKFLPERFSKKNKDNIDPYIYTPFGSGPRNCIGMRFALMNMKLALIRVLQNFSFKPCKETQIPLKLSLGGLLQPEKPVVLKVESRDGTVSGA
Series [11] can be described thus: Permeability from apical to basolateral side of Caco-2 cell membrane. It is filed as ADME, cell-based. The conditions noted are these: human, read-out: permeability.
The next series has as its target Cytochrome P450 2C9 (Homo sapiens, UniProt P11712). Description: Inhibition of CYP2C9. In kind it is ADME.
Another series concerns the target T3, Cytochrome P450 1A2 (Homo sapiens, UniProt P05177).
T3 sequence (P05177 whole entry): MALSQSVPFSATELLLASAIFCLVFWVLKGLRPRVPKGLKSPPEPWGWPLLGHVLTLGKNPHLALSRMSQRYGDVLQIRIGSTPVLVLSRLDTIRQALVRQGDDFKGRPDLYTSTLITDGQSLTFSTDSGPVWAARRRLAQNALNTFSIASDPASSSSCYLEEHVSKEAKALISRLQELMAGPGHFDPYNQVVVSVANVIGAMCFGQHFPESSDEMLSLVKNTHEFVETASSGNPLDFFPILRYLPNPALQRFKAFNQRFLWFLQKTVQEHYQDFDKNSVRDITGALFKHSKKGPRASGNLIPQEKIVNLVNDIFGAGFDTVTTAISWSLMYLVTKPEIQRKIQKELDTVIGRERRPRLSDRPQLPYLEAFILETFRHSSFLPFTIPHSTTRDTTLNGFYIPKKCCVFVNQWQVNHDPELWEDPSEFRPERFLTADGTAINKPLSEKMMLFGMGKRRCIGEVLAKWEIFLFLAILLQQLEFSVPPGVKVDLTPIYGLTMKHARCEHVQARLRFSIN
Put plainly: Inhibition of CYP1A2. It is filed as ADME.

The nature of series [12]: Oral bioavailability in rat at 2 mg/kg. It is filed as ADME, organism-based. Particulars: in vivo.
Series [13] can be described thus: Intrinsic clearance in human microsomes. It is filed as ADME, Microsome.
Series [14] is described as follows: Clearance in rat. Particulars: in vivo. In kind it is ADME, organism-based.
The target in a further series is Cytochrome P450 2C19 (Homo sapiens, UniProt P33261). Put plainly: Inhibition of CYP2C19. In kind it is ADME.
Cytochrome P450 2C19, sequence (P33261 whole entry): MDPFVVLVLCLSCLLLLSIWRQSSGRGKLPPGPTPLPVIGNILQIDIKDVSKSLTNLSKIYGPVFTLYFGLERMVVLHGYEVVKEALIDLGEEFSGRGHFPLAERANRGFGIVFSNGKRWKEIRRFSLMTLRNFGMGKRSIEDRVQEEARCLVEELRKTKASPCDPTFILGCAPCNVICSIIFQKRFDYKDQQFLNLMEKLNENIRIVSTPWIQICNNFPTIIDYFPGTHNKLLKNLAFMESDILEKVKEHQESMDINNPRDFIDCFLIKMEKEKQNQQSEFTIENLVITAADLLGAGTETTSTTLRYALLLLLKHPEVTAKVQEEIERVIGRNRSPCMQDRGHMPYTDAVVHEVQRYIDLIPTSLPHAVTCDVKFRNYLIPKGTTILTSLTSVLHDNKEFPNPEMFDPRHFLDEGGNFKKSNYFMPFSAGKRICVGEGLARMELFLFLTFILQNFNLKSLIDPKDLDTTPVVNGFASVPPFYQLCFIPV
The target in the next series is T4, Thromboxane A2 receptor (Homo sapiens, UniProt P21731).
T4 sequence (P21731 whole entry): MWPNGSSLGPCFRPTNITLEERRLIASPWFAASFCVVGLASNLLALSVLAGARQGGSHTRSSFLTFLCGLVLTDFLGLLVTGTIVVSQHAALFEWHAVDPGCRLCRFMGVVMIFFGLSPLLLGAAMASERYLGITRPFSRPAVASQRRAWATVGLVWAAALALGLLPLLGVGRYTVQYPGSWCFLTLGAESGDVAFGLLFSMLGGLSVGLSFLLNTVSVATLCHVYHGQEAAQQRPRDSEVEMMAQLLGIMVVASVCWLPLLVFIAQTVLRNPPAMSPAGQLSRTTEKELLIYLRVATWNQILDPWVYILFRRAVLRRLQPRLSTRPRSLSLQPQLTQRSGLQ
Description: Binding affinity at prostanoid TP receptor.

Series [15] concerns the target Prostaglandin E2 receptor EP2 subtype (Homo sapiens, UniProt P43116). Put plainly: Binding affinity at prostanoid EP2 receptor.

Cytochrome P450 2C9, sequence (P11712 whole entry): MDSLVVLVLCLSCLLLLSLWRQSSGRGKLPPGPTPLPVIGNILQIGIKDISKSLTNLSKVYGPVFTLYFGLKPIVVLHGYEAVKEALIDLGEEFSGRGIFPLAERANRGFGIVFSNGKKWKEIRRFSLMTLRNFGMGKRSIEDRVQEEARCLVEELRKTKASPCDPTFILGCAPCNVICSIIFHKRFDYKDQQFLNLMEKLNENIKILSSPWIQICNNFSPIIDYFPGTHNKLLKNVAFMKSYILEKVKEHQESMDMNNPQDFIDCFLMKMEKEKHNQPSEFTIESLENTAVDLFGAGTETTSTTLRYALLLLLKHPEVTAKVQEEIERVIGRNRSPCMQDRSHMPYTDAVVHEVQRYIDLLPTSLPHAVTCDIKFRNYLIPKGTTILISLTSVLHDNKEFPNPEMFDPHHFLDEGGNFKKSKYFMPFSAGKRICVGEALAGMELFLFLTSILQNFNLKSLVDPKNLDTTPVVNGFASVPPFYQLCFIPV
Prostaglandin E2 receptor EP2 subtype, sequence (P43116 whole entry): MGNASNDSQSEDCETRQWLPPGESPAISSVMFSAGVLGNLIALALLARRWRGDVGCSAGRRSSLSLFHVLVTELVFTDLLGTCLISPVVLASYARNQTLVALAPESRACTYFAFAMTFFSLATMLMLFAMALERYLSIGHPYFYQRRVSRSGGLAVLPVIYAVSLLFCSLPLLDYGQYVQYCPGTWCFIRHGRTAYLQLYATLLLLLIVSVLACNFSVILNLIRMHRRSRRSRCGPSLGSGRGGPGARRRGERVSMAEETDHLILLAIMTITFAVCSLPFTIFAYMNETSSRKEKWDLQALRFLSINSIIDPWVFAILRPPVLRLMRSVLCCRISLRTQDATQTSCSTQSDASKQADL

What is called pKi is the negative decadic logarithm of the Ki, by convention in mol/L. On to `O=C(O)COc1ccccc1C1CCCCC1`, for which the negative-log Ki (pKi) was 6.51 in series [1] and less than 5.00 in [2].

For the compound `OCCOc1ccc(Cl)cc1C1CCCCC1`, the pKi in series [1] and in series [2] was less than 5.00 each time.

As a reminder, the AUC is the area under the concentration-time curve, a measure of exposure. The term Cmax denotes the highest concentration seen after dosing. As usually defined, the pIC50 is the IC50 on a negative log10 scale, so that one unit is a factor of ten. Read a low pIC50 as a high IC50. As a reminder, the microsomal CLint is a measure of how fast metabolising enzymes remove a compound, apart from limits set by blood flow. A low value points to slow turnover. By half-life is commonly meant how long it takes for the measured level to halve. A low value points to fast loss. For orientation: bioavailability means dose-corrected exposure relative to a reference, in per cent. Higher therefore signals much systemic uptake. As a reminder, the clearance is the rate of elimination divided by the concentration. Low values mean a low capacity for elimination, high ones a high capacity for elimination. As for `O=C(O)COc1ccc(Cl)cc1C1CCCCCC1`, the Papp B→A in series [3] stood at 21.4 ×10⁻⁶ cm/s. The AUC in series [4] is 11.6 µM·h. In series [5], this compound showed a Cmax of 4.7 µM. In addition, the pIC50 in the series on Eosinophil [6] was 6.61; against Cytochrome P450 2D6 it was less than 5.00; against Cytochrome P450 3A4, less than 5.00; against Cytochrome P450 2C9, less than 5.00; on Cytochrome P450 1A2 it was less than 5.00; against Cytochrome P450 2C19, less than 5.00. Besides, the microsomal CLint was determined as 205 µL/min/mg in [7] and 109 µL/min/mg in [13]. For the same compound, the pKi in series [1] is 7.23; in series [2], 5.73. This compound also yielded a half-life in series [8] of 1.18 h. Also, the Vd in [9] was determined as 0.52 L/kg. In the series on Eosinophil [10], the outcome was inactive. Further, in series [11], the Papp A→B amounted to 8.4 ×10⁻⁶ cm/s. This compound also had a bioavailability in series [12] of 58%. This compound displayed a clearance in [14] of 7.3 mL/min/kg.

Turning to `N#Cc1ccc(OCC(=O)O)c(C2CCCCC2)c1`, in the series on Eosinophil [6], the pIC50 was 7.28. In addition, the figures for the pKi in series [1] and in series [2] were 6.64 and less than 5.00, respectively.

Compound `O=C(O)COc1ccc(C(F)(F)F)cc1C1CCCCC1` had a pIC50 in the series on Eosinophil [6] of 6.76. Besides, the pKi in series [1] is 7.70; in series [2], less than 5.00.

In the case of `O=C(O)CCCOc1ccc(Cl)cc1C1CCCCC1`, the negative-log Ki (pKi) was 5.70 in [1] and less than 5.00 in series [2].

In the series with Eosinophil [6], `O=C(O)COc1ccc(Cl)cc1C1CCCC1` had a pIC50 of 5.99. Further, the pKi is 6.82 in [1] and 5.32 in series [2].

With `Cc1cc(Cl)ccc1OCC(=O)O` [METAXON], the pKi in [1] and in series [2] was less than 5.00 throughout.

`Clc1ccc(OCc2nnn[nH]2)c(C2CCCCC2)c1`: the pKi in series [1] and in series [2] was less than 5.00 each time.

In the case of `O=C(O)COc1ccc(-c2ccc(F)cc2)cc1C1CCCCC1`, the pKi in [1] is 7.00; in series [2] it was 5.19.

For `Cc1ccc(OCC(=O)O)c(C2CCCCC2)c1`, the pKi was 6.45 in series [1] and less than 5.00 in [2].

`O=C(O)COc1ccc(Br)cc1C1CCCCC1`: the pIC50 in the series with Eosinophil [6] was 6.35. In addition, the figures for the pKi in [1] and in series [2] were 7.08 and 5.23, respectively.

On to `C[C@@H](Oc1ccc(Cl)cc1C1CCCCC1)C(=O)O`, for which the pKi in series [2] is less than 5.00.

In the case of `O=C(O)CCOc1ccc(Cl)cc1C1CCCCC1`, the figures for the pKi in [1] and in series [2] were 6.10 and less than 5.00, respectively.

In the case of `O=C(O)COc1ccc(Cl)cc1C1CCCCC1`, the pKi at Thromboxane A2 receptor was less than 5.00; in series [15], 5.52; in series [1], 6.81; in series [2] it was 5.12. The same compound had a pIC50 with Eosinophil [6] of 7.03.

On to `COc1ccc(OCC(=O)O)c(C2CCCCC2)c1`, for which the pKi was 6.11 in [1] and less than 5.00 in series [2].

In the case of `C=CCc1cc(Cl)ccc1OCC(=O)O`, the pKi in series [1] was 5.29; in series [2], 5.32.

Take `C[C@H](Oc1ccc(Cl)cc1C1CCCCC1)C(=O)O`: the pKi in series [2] was 5.35.

Take `O=C(O)COc1ccc(F)cc1C1CCCCC1`: the pKi is 6.35 in series [1] and less than 5.00 in [2].

On to `COC(=O)COc1ccc(Cl)cc1C1CCCCC1`, for which the pKi was 5.48 in series [1] and 5.05 in series [2].

For the compound `CC1(c2cc(Cl)ccc2OCC(=O)O)CCCCC1`, in the series on Eosinophil [6], the pIC50 was 6.35. The pKi in series [1] is 7.05; in series [2], 5.92.

Turning to `CS(=O)(=O)NC(=O)COc1ccc(Cl)cc1C1CCCCC1`, the pKi in series [1] and in series [2] was less than 5.00 each time.
